Experimental data taken from US20250339461A1 (priority 2024, published 2025).
“Also recorded” adds a separate entry of the source.

What was measured:
migraine headache = settings: human, in vivo
[1] = human, in vivo
neuropathic facial pain = test system: neuropathic facial pain; design: species or system human; settings: in vivo
nausea = settings: human, in vivo

O=C(O)Cc1ccccc1Nc1c(Cl)cccc1Cl [diclofenac]
benefit for rescue (migraine headache): without benefit

CC1(C)O[C@@H]2[C@@H](CO[C@@]3(COS(N)(=O)=O)OC(C)(C)O[C@@H]23)O1 [topiramate]
tolerability [1]: could not tolerate the side effects
benefit as prophylactic agent for migraines (migraine headache): without benefit
benefit for migraine prophylaxis (migraine headache): helped some
benefit for migraine prophylaxis, history at first visit (migraine headache): no benefit
frequency of severe migraine headaches on treatment (migraine headache): 5 to 7 days a week

CCN(CC)CCNC(=O)c1cc(Cl)c(N)cc1OC [metoclopramide]
tolerability [1]: intolerant

CC(C)C[C@H](CN)CC(=O)O [pregabalin]
benefit as prophylactic agent for migraines (migraine headache): without benefit
effect on comorbid neuropathic facial pain (neuropathic facial pain): treated effectively

CC(C)NCC(O)COc1cccc2ccccc12 (centres unmarked) [propranolol]
tolerability [1]: caused dizziness
benefit as prophylactic agent for migraines (migraine headache): without benefit
benefit from previous treatment (migraine headache): no benefit

NCC1(CC(=O)O)CCCCC1 [gabapentin]
benefit as prophylactic agent for migraines (migraine headache): without benefit
benefit for migraine prophylaxis, history at first visit (migraine headache): no benefit
benefit from previous treatment (migraine headache): no benefit

COC1=C(OC)C(=O)C(C/C=C(\C)CC/C=C(\C)CC/C=C(\C)CC/C=C(\C)CC/C=C(\C)CC/C=C(\C)CC/C=C(\C)CC/C=C(\C)CC/C=C(\C)CCC=C(C)C)=C(C)C1=O [coenzyme Q10]
benefit as prophylactic agent for migraines (migraine headache): without benefit
benefit for prophylaxis (migraine headache): no benefit
effect on frequency of headaches after 4-6 weeks (migraine headache): did not affect the frequency

CC(C)Cc1ccc(C(C)C(=O)O)cc1 (centres unmarked) [ibuprofen]
benefit from previous treatment (migraine headache): no benefit

CCCCc1nc(Cl)c(CO)n1Cc1ccc(-c2ccccc2-c2nn[nH]n2)cc1 [losartan]
benefit for migraine prophylaxis, history at first visit (migraine headache): no benefit

CCCCN1CCCCC1C(=O)Nc1c(C)cccc1C (centres unmarked) [bupivacaine]
pain after local anesthetic injection along superior nuchal line (migraine headache): substantially improved for two days

C[C@@H]1[C@H](c2ccccc2)C[C@H](NC(=O)c2cnc3c(c2)C[C@@]2(C3)C(=O)Nc3ncccc32)C(=O)N1CC(F)(F)F [Ubrelvy]
benefit for rescue (migraine headache): not helpful

NS(=O)(=O)Cc1noc2ccccc12 [zonisamide]
benefit as prophylactic agent for migraines (migraine headache): without benefit

Cc1nccn1CC1CCc2c(c3ccccc3n2C)C1=O (centres unmarked) [ondansetron]
effect on nausea (nausea): at times helpful for nausea

CN(C)CCc1c[nH]c2ccc(C[C@H]3COC(=O)N3)cc12 [zolmitriptan nasal spray, zolmitriptan]
benefit for rescue (migraine headache): without benefit

NCC(CC(=O)O)c1ccc(Cl)cc1 (centres unmarked) [baclofen]
benefit as prophylactic agent for migraines (migraine headache): without benefit
benefit for migraine prophylaxis, history at first visit (migraine headache): no benefit
benefit from previous treatment (migraine headache): no benefit

CNS(=O)(=O)Cc1ccc2[nH]cc(CCN(C)C)c2c1 [sumatriptan tablet, sumatriptan]
benefit for rescue (migraine headache): not helpful; also recorded: partially helpful; also recorded: without benefit

Clc1ccc2nsnc2c1NC1=NCCN1 [tizanidine]
benefit as prophylactic agent for migraines (migraine headache): without benefit
benefit for prophylaxis (migraine headache): partially helpful

Cc1cc2nc3c(=O)[nH]c(=O)nc-3n(C[C@H](O)[C@H](O)[C@H](O)CO)c2cc1C [riboflavin]
effect on frequency of headaches after 4-6 weeks (migraine headache): did not affect the frequency

CN(C)CCC=C1c2ccccc2CCc2ccccc21 [amitriptyline]
benefit as prophylactic agent for migraines (migraine headache): without benefit

NC(=O)N1c2ccccc2C=Cc2ccccc21 [carbamazepine]
benefit as prophylactic agent for migraines (migraine headache): without benefit

CN1CCC[C@@H]1Cc1c[nH]c2ccc(CCS(=O)(=O)c3ccccc3)cc12 [eletriptan]
benefit for rescue (migraine headache): consistently effective

C[C@]12C=CC(=O)C=C1CC[C@@H]1[C@@H]2C(=O)C[C@@]2(C)[C@H]1CC[C@]2(O)C(=O)CO [prednisone]
benefit as prophylactic agent for migraines (migraine headache): without benefit

COc1cccc(C2(O)CCCCC2CN(C)C)c1 (centres unmarked) [tramadol]
benefit for rescue (migraine headache): partially helpful; also recorded: without benefit

Oc1ccc2c(c1)[C@@]13CCCC[C@@]1(O)[C@@H](C2)N(CC1CCC1)CC3 [butorphanol]
benefit for rescue (migraine headache): without benefit

CN(C)CCc1c[nH]c2ccc(Cn3cncn3)cc12 [rizatriptan]
adverse effect when tried for rescue [1]: severe elevation in their blood pressure
benefit for rescue (migraine headache): no longer effective
share of the time it worked for rescue (migraine headache): approximately 20 % of the time

CCCC(CCC)C(=O)O [valproic acid]
benefit as prophylactic agent for migraines (migraine headache): without benefit

B1: Ajovy: prophylactic agent tried for migraines (antibody, chains of the INN, looked up, V domains shown)
VH: EVQLVESGGGLVQPGGSLRLSCAASGFTFSNYWISWVRQAPGKGLEWVAEIRSESDASATHYAEAVKGRFTISRDNAKNSLYLQMNSLRAEDTAVYYCLAYFDYGLAIQNYWGQGTLVTVSS
VL: EIVLTQSPATLSLSPGERATLSCKASKRVTTYVSWYQQKPGQAPRLLIYGASNRYLGIPARFSGSGSGTDFTLTISSLEPEDFAVYYCSQSYNYPYTFGQGTKLEIK
benefit as prophylactic agent for migraines (migraine headache): without benefit

B2: Emgality: prophylactic agent prescribed for chronic migraine (antibody, chains of the INN, looked up, V domains shown)
VH: QVQLVQSGAEVKKPGSSVKVSCKASGYTFGNYWMQWVRQAPGQGLEWMGAIYEGTGKTVYIQKFADRVTITADKSTSTAYMELSSLRSEDTAVYYCARLSDYVSGFGYWGQGTTVTVSS
VL: DIQMTQSPSSLSASVGDRVTITCRASKDISKYLNWYQQKPGKAPKLLIYYTSGYHSGVPSRFSGSGSGTDFTLTISSLQPEDFATYYCQQGDALPPTFGGGTKVEIK
side effects [1]: caused unwanted side effects
benefit as prophylactic agent for migraines (migraine headache): without benefit
benefit for migraine prophylaxis (migraine headache): significantly improved
benefit for migraine prophylaxis, history at first visit (migraine headache): had not noticed any obvious benefit
benefit for migraine, subsequent treatment rounds (migraine headache): reduced the pain somewhat, but had not reduced the frequency or duration
frequency of headaches with throbbing, light and sound sensitivity (migraine headache): once or twice per week
migraine frequency on treatment (migraine headache): 2 to 3 days/week
